In experiment [1] the test system is cultured human mast cells (CHMC). As to the kind of experiment: CHMC low cell density IgE activation: tryptase assay. In kind it is cell-based. A digest of the protocol:
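Degranulation was triggered with anti-IgE for 30 minutes at 37° C in cultured human mast cells seeded at low density (1000-1500 cells/well, chosen by donor) after a 1 hr equilibration in MT buffer. Released tryptase in cleared supernatant was quantified with a tryptase substrate at room temperature for 30 minutes.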

Experiment [2] shares this test system. As to the kind of experiment: CHMC low cell density IgE activation: LTC4 assay. In kind it is cell-based. As to conditions: anti-IgE activation, LTC4 release. Here is the method:
Pellet CHMC cells (980 rpm, 10 min) and resuspend in pre-warmed MT. Add 65 ul of cells to each 96-well plate. Depending on the degranulation activity for each particular CHMC donor, load 1000-1500 cells/well. Mix four times followed by a 1 hr incubation at 37° C. […] Stimulate cells by adding 25 ul of 6× anti-IgE solution to the appropriate plates. Add 25 ul MT to un-stimulated control wells. Mix twice following addition of the anti-IgE. Incubate at 37° C. for 30 minutes. […] Spin plates at 1000 rpm for 10 min to pellet cells. Transfer 25 ul of supernatant to a 96-well black bottom plate and add 100 ul of freshly diluted tryptase substrate solution to each well. Incubate plates at room temperature for 30 min.
Leukotriene C4 (LTC4) is also quantified using an ELISA kit on appropriately diluted supernatant samples (determined empirically for each donor cell population so that the sample measurement falls within the standard curve) following the supplier's instructions.

Experiment [3] has the same test system. Kind of experiment: CHMC low cell density ionomycin activation: tryptase assay. It is filed as cell-based.
Experiment [4] concerns Jurkat cells. As to the kind of experiment: Jurkat (T-cell) toxicity, light scatter. It is filed as cell-based, human. As to conditions: read-out: Toxicity Jurkat Light Scat. The procedure:
Dilute Jurkat cells to 2×10^5 cells/ml in complete RPMI (10% heat-inactivated fetal bovine serum) media and incubate at 37° C., 5% CO2 for 18 hours. Add 65 ul cells at 7.7×10^5 cells/ml to a 96-well V-bottom plate (TC-treated, Costar) containing 65 ul 2× compound (final vehicle concentration is 0.5% DMSO, 1.5% MeOH). Mix, incubate plates for 18-24 hr at 37° C., 5% CO2. Toxicity was assessed by flow cytometric analysis of cellular light scatter

The test system of experiment [5] is B-cell line BJAB. Kind of experiment: BJAB (B-cell) toxicity, light scatter. As to conditions: read-out: Toxicity BJAB Light Scat. It is filed as cell-based. Here is the method:
The B-cell line BJAB was cultured in log phase in RPMI1640+10% heat-inactivated fetal bovine serum, 1× L-glutamine, 1× penicillin, 1× […] and 1× beta-mercaptoethanol at 37° C., 5% CO2. First, BJABs were harvested, spun and resuspended in culture medium to a concentration of 7.7×10^5 cells/mL. 65 uL cells were mixed with 65 uL compound, in duplicate and in the presence of 0.1% DMSO in a V-bottomed 96-well tissue culture plate. Cells were incubated with compound at various dilutions at 37° C., 5% CO2. Toxicity was assessed by flow cytometric analysis of cellular light scatter.

Experiment [6] deals with Human Jurkat T-cells (clone N). As to the kind of experiment: Jurkat T-cell activation (anti-TCR, CD69 upregulation). It is filed as cell-based. The gist of the method: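 Readout is CD69 upregulation by flow cytometry (anti-CD69-APC, 20 min at 4 °C) after 20 h anti-TCR (C305, 500 ng/ml) stimulation at 37 °C.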
The subject of experiment [7] is basophil cells (human peripheral blood). Kind of experiment: Basophil ionomycin activation: histamine release assay. As to conditions: basophils, ionomycin activation, histamine release; read-out: Basophils Ionomycin Histamine IC50. It is filed as cell-based. The procedure: The basophil activation assay was carried out using whole human peripheral blood from donors allergic to dust mites with the majority of the red blood cells removed by dextran sedimentation. Human peripheral blood was mixed 1:1 with 3% dextran T500 and RBCs were allowed to settle for 20-25min. The upper fraction was diluted with 3 volumes of D-PBS and cells were spun down for 10 min at 1500 rpm, RT. Supernatant was aspirated and cells were washed in an equal volume MT-buffer. Finally, cells were resuspended in MT-buffer containing 0.5% DMSO in the original blood volume. 80 uL cells were mixed with 20 uL compound in the presence of 0.5% DMSO, in triplicate, in a V-bottom 96-well tissue culture plate. A dose range of 8 compound concentrations was tested resulting in a 10-point dose response curve including maximum (stimulated) and minimum (unstimulated) response. […] The cells were stimulated for 30 minutes at 37° C., 5% CO2. The plate was spun for 10 min at 1500 rpm at room temperature and 80 uL the supernatant was harvested for histamine content analysis using the histamine ELISA kit supplied by Immunotech. The ELISA was performed according to supplier's instructions.
Assays for ionomycin-induced basophil cell degranulation were carried out as described for the Basophil IgE or Dustmite Activation Assay (Section 7.5.5, supra), with the exception that following incubation with compound, cells were stimulated with 20 μl of 2 μM ionomycin.

Experiment [8] deals with IgE-induced degranulation of tissue mast cells. As to the kind of experiment: Mouse model of passive cutaneous anaphylaxis (PCA). As to conditions: oral route in a PEG-based formulation (data not shown). In kind it is in vivo. The procedure:
This model provides a direct measure of IgE-induced degranulation of tissue mast cells. In this model, IgE primed animals are exposed to an allergen challenge, and the change in permeability of dermal vasculature that results from histamine release from mast cells is measured by change in the amount of dye leakage into surrounding tissue. Inhibition of mediator release by compounds that modulate mast cell degranulation is easily measured by extracting the dye from the tissue.
In the PCA assay mice are passively sensitized by intradermal injection with anti-dinitrophenol (DNP) IgE antibodies (Day −1). At predetermined times animals are treated with the test agent (Day 0). The modulatory effect of the agent on cutaneous mast cell degranulation is measured following intravenous injection of DNP conjugated to human serum albumin (HSA-DNP), together with Evans blue dye. The resulting cross-linking of the IgE receptor and subsequent mast cell degranulation-induced increase in vascular permeability is determined by measuring the amount of dye extravasation into the tissue. Dye is extracted from the tissue by formamide, and the absorbance of this extract is read at 620 nm.

The nature of experiment [9]: Sheep model of allergic asthma. In kind it is in vivo. The procedure: In the sheep model of allergic asthma, sheep are administered aerosols of test article via an endotracheal tube, followed by an aerosol challenge with antigen extracted from the roundworm, Ascaris suum, to which the sheep are naturally allergic. Allergen challenge leads to direct bronchoconstriction (both EAR and LAR) and a persistent non-specific AHR. These three characteristics are similar to those seen in human allergic asthmatics. The activity of the test agent is determined by changes in the lung resistance (RL), which is calculated from measurements of transpulmonary pressure, flow, and respiratory volume. […] The LAR is a less pronounced increase in RL, which starts approximately 5-6 hours following allergen challenge and is resolved by 8 hours post-challenge. Twenty-four hours after the challenge, a dose response to carbachol is measured to determine the AHR, which is expressed as the dose of carbachol required to increase RL by 400% over baseline. (This measurement is referred to as the provocative concentration of carbachol that elicits a 400% increase in RL over baseline (PC400). The data are compared to historical control data for the same individual when administered a saline control aerosol and challenged with Ascaris suum.

For experiment [10], the target named is T1, Syk kinase (Homo sapiens, UniProt P43405).
T1 construct: purchased Upstate, Lake Placid NY
As to the kind of experiment: Syk kinase biochemical fluorescence polarization assay. As to conditions: isolated Syk kinase, fluorescence polarization, 4 uM ATP. (In general: Fluorescence polarisation rises when a labelled molecule tumbles more slowly, as on binding a larger partner.)

Experiment [11] relates to Primary T-cells. Kind of experiment: Primary T-cell cytokine production (αCD3/αCD28): IL-2. As to conditions: read-out: 1° T-Cell IL2 IC50. In kind it is cell-based, human. The procedure: 2E8-4E8 PBMC or proliferating T cells grown in rIL-2 from healthy human donors were suspended in PBS were spun down (1500 rpm, 8-10 minutes) and resuspended in 100 ml RPMI Complete media (1% Pen-Strep, 1% L-Glutamine, 10 mM HEPES). The cells were plated in T175 flasks (37° C., 5% CO2) and monocytes were allowed to adhere for 2-3 hours. After monocyte attachment, non-adherent cells were harvested, counted by hemocytometer, washed several times with PBS then resuspended in Yssels Complete Media (Modified IMDM Media with 1% Human AB Serum, 1% Pen-Strep, 1% L-Glutamine, 10 mM HEPES) at […]. 90 uL of the cell dilution were then added to compounds diluted to 2× in Yssel's media and incubated for 30 minutes at 37° C. (5% CO2). After this preincubation step the compound/cell mixture was transferred to stimulation plates, as described below.
Stimulation plates were prepared by coating 96 well plates with 5 μg/ml αCD3 (BD PharMingen, Catalog #555336)+10 μg/ml αCD28 (Beckman Coulter, Catalog #IM1376) in PBS (no Ca^2+/Mg^2+) at 37° C. (5% CO2) for at 3-5 hours. After incubation with the stimulation antibodies, the cocktail was removed and the plates washed 3 times with PBS prior to addition of the primary T cell/compound mixture.
The compound/cell mixture was transferred to the stimulation plates and incubated for 18 hr at 37° C. (5% CO2). After the cell stimulation, ˜150 μl supernatant were transferred from each well into 96-well filter plates (Coming PVDF Filter Plates) spun down (2000 rpm, 2-3 minutes) and either used immediately for ELISA or LUMINEX measurements or frozen down at −80° C. for future use.
IL-2 ELISAs were performed using the Quantikine Human IL-2 ELISA kit (R&D Systems, Catalog # D2050) as described by the manufacturer and absorption was measured on a spectrophotometer at 450 nm wavelength. Blank values were substracted and absorbances were converted to pg/mL based on the standard curve.
Luminex immunoassay multiplexing for TNF, IL-2, GMSCF, IL-4 and IFNg was performed essentially as described by the manufacturer (Upstate Biotechnology). Essentially 50 uL of sample was diluted into 50 uL assay diluent and 50 uL incubation buffer, then incubated with 100 uL of the diluted detection antibody for 1 hr at RT in the dark. The filter plate was washed 2× in Wash Buffer, then incubated with 100 uL of the diluted secondary reagent (SAV-RPE) for 30 min at RT in the dark. Finally the plates were washed 3 times and bead identification and RPE fluorescent measured by the Luminex instrument.
Varied concentrations of compound were compared to solvent only to determine the inhibition of T-cell activation IC50 of each compound.

Experiment [12] deals with FcγRI-mediated degranulation. Kind of experiment: FcγRI-mediated degranulation (anti-human IgG Fab activation). In kind it is cell-based. As to conditions: cells not primed with IgE, activated with rabbit anti-human IgG Fab fragment.
The mark [13] stands for this setting: Low Density CHMC, anti-IgE activation, tryptase release, read-out: CHMC anti-IgE Tryptase IC50.
The mark [14] stands for this setting: Low Density CHMC, ionomycin activation, tryptase release, read-out: CHMC Ionomycin Tryptase IC50.
Setting [15] is: dose, pretreatment and vehicle per compound as in TABLE 5.

Bounds are passed on as bounds.

For `CC(=O)Oc1cccc(Nc2ncc(F)c(Nc3cccc(OC(C)=O)c3)n2)c1` [Compound R926387], the IC50 is 0.65 µM in experiment [1] (setting [13]); 0.7 µM in experiment [2]; greater than 10 µM in [3] (setting [14]); greater than 10 µM in experiment [4]; greater than 10 µM in experiment [5]; 3.85 µM in [6].

As to `Cc1cnc(Nc2cccc(O)c2)nc1Nc1cccc(O)c1` [Compound R926248], the IC50 in experiment [1] (setting [13]) is 0.9 µM; in experiment [2], 0.76 µM; in experiment [3] (setting [14]) it was greater than 10 µM; in experiment [4], greater than 10 µM; in experiment [5] it was greater than 10 µM; in [6], 1.54 µM.

As to `CNC(=O)COc1cccc(Nc2ncc(C(F)(F)F)c(Nc3cccc(O)c3)n2)c1` [Compound R926742], the IC50 was greater than 10 µM in experiment [7], 0.076 µM in experiment [10] and 0.717 µM in experiment [11]. Moreover, the PCA response result in experiment [8] was “able to inhibit the PCA response”. In addition, the EAR result in experiment [9] (administered in an aqueous suspension) is listed as “failed to inhibit”. In experiment [9] (setting [15]), the “LAR and AHR” value was “blocked”.

For `Oc1cccc(Nc2ccnc(Nc3cccc(O)c3)n2)c1` [Compound R926249], the IC50 in [1] (setting [13]) was 0.5 µM; in [2], 0.25 µM; in [3] (setting [14]) it was greater than 10 µM; in experiment [4], greater than 10 µM; in experiment [5] it was greater than 10 µM; in experiment [6] it was 0.954 µM.

For the molecule `Oc1cccc(Nc2nc(Nc3ccc4c(c3)OCCO4)ncc2Br)c1` [Compound R925797], the IC50 in experiment [1] (setting [13]) is 0.85 µM; in experiment [2] it was 0.28 µM; in experiment [3] (setting [14]), greater than 10 µM; in experiment [4] it was greater than 10 µM; in [5], greater than 10 µM; in [6], 1.51 µM.

As to `CNC(=O)COc1cccc(Nc2ncc(F)c(Nc3ccc4c(c3)OCCO4)n2)c1` [Compound R926495], the IC50 in experiment [7] is greater than 10 µM; in experiment [6], 11.9 µM; in experiment [11] it was 0.643 µM. Further, in experiment [9] (setting [15]), the EAR result is “greatly reduced”. The “LAR and AHR” value in experiment [9] (setting [15]) was “blocked”.

As to `Cc1cc(Nc2ncc(F)c(Nc3ccc4c(c3)NC(=O)C(F)(F)O4)n2)cc(Cl)c1O` [Compound R926971], the IC50 is 0.034 µM in [1] (low cell density, read-out: CHMC anti-IgE Tryptase); greater than 10 µM in experiment [3] (low cell density, read-out: CHMC Ionomycin Tryptase); 0.008 µM in experiment [10]. Besides, the “inhibition of FcγRI-mediated degranulation” value in experiment [12] is “inhibit FcγRI-mediated degranulation”.

In the case of `Oc1cccc(Nc2ncc(Br)c(Nc3cccc(O)c3)n2)c1` [Compound R925778], the IC50 in [1] (setting [13]) was 0.225 µM; in experiment [2], 0.18 µM; in [3] (setting [14]), greater than 10 µM; in experiment [4] it was greater than 10 µM; in [5], greater than 10 µM; in experiment [6], 3.4 µM.

For the origin of these results see US8158621B2, “Methods of treating or preventing autoimmune diseases with 2,4-pyrimidinediamine compounds” (Rigel Pharmaceuticals, Inc., priority 2002, dated 2012).
